What all share (experiment): Kinase panel profiling at 1 µmol/L (MSA or IMAP), percentage inhibition
Holding throughout (format): biochemical

Assay [1] concerns the target panel of 255 wild-type kinases (Homo sapiens, UniProt P10721). The note with it: kinase KIT; 1 µmol/L single concentration; read-out: %-inhibition at 1 µmol/L, KIT.
In assay [2] the target is panel of 255 wild-type kinases (Homo sapiens, UniProt P22694). The following applies: kinase PKACβ; 1 µmol/L single concentration; read-out: %-inhibition at 1 µmol/L, PKACβ.
The target in assay [3] is panel of 255 wild-type kinases (Homo sapiens, UniProt P00519). The note with it: ABL kinase assay; 1 µmol/L single concentration; read-out: %-inhibition ABL.
The target in assay [4] is panel of 255 wild-type kinases (Homo sapiens, UniProt P49840). The note with it: kinase GSK3α; 1 µmol/L single concentration; read-out: %-inhibition at 1 µmol/L, GSK3α.
The target in assay [5] is panel of 255 wild-type kinases (Homo sapiens, UniProt P29597). The note with it: kinase TYK2; 1 µmol/L single concentration; read-out: %-inhibition at 1 µmol/L, TYK2.
Assay [6] addresses panel of 255 wild-type kinases (Homo sapiens, UniProt P19784). The note with it: kinase CK2α2/β; 1 µmol/L single concentration; read-out: %-inhibition at 1 µmol/L, CK2α2/β.
Assay [7] has as its target panel of 255 wild-type kinases (Homo sapiens, UniProt Q9H4A3). The note with it: kinase WNK1; 1 µmol/L single concentration; read-out: %-inhibition at 1 µmol/L, WNK1.
The target in assay [8] is panel of 255 wild-type kinases (Homo sapiens, UniProt O95819). The following applies: kinase HGK; 1 µmol/L single concentration; read-out: %-inhibition at 1 µmol/L, HGK.
Assay [9] addresses panel of 255 wild-type kinases (Homo sapiens, UniProt Q00535). The following applies: CDK5/p25 kinase assay; 1 µmol/L single concentration; read-out: %-inhibition CDK5/p25.
Assay [10] deals with T1, panel of 255 wild-type kinases (Homo sapiens, UniProt P41743).
T1 sequence (P41743 1-596): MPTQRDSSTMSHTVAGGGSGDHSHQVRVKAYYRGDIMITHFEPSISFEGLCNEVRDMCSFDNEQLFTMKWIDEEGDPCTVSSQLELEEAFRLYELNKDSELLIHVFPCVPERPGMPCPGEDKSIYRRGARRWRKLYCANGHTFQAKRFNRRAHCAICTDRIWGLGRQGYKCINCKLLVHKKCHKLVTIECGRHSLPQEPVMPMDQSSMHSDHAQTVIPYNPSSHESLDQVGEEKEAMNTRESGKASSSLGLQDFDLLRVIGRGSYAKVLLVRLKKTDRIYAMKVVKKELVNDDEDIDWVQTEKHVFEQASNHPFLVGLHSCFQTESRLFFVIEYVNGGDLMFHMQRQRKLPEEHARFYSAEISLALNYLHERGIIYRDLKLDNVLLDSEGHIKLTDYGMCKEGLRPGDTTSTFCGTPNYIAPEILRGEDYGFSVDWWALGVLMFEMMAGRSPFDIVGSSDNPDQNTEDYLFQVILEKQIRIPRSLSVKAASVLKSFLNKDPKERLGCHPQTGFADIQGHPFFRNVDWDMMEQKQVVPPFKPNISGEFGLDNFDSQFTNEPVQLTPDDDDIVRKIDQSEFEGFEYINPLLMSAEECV
The following applies: kinase PKCι; 1 µmol/L single concentration; read-out: %-inhibition at 1 µmol/L, PKCι.

The target of assay [11] is panel of 255 wild-type kinases (Homo sapiens, UniProt Q9NYY3). The note with it: kinase PLK2; 1 µmol/L single concentration; read-out: %-inhibition at 1 µmol/L, PLK2.
Assay [12] deals with panel of 255 wild-type kinases (Homo sapiens, UniProt P08631). The note with it: kinase HCK; 1 µmol/L single concentration; read-out: %-inhibition at 1 µmol/L, HCK.
Assay [13] concerns the target panel of 255 wild-type kinases (Homo sapiens, UniProt Q05397). The note with it: kinase FAK; 1 µmol/L single concentration; read-out: %-inhibition at 1 µmol/L, FAK.
In assay [14] the target is panel of 255 wild-type kinases (Homo sapiens, UniProt Q9NYA1). The note with it: kinase SPHK1; 1 µmol/L single concentration; read-out: %-inhibition at 1 µmol/L, SPHK1.
Assay [15] addresses panel of 255 wild-type kinases (Homo sapiens, UniProt P78368). The note with it: kinase CK1γ2; 1 µmol/L single concentration; read-out: %-inhibition at 1 µmol/L, CK1γ2.

Regarding `COc1ccc(CN2C3CC2CN(c2ccc(-c4cc(OCC(C)(C)O)cn5ncc(C#N)c45)cn2)C3)cn1` [selpercatinib], the inhibition at 1 µM in assay [1] is 54%; in [2], -4.64%; in assay [3] it was 16%; in [4], 30%; in assay [5], 3.39%; in [6] it was 0.638%. Moreover, the inhibition at 1 µM in [7] was -10%; in assay [8], 7%; in assay [9] it was -8.52%; in assay [10], -0.803%; in assay [11], 4%; in assay [12], 58%. Besides, the inhibition at 1 µM in assay [13] is 10%; in assay [14], -13%; in assay [15] it was -2.46%.
For `Cn1cnc2c(F)c(Nc3ccc(Br)cc3Cl)c(C(=O)NOCCO)cc21` [selumetinib], the inhibition at 1 µM is -2.4% in assay [1]; -21% in assay [2]; -6.58% in assay [3]; -1.06% in assay [4]; -3% in [5]; -2% in assay [6]. Also, the inhibition at 1 µM in assay [7] is -2.62%; in [8], 1.58%; in assay [9], -11%; in assay [10], -6.5%; in assay [11], 2.78%; in [12], 4%. Further, the inhibition at 1 µM was -1.9% in [13], -8% in assay [14] and -1.66% in [15].
With `Cc1cc(Nc2ncnc3ccc(NC4=NC(C)(C)CO4)cc23)ccc1Oc1ccn2ncnc2c1` [tucatinib], the inhibition at 1 µM in [1] was -1.27%; in assay [2], -15%; in assay [3], -3%; in assay [4] it was 5.54%; in assay [5] it was 4.71%; in assay [6], -2.25%. Moreover, the inhibition at 1 µM in assay [7] is -4%; in [8] it was 3.65%; in [9], -5%; in assay [10] it was -2.24%; in assay [11], 7%; in assay [12], -3%. Also, the inhibition at 1 µM in assay [13] is -1.17%; in assay [14] it was -6.37%; in [15] it was -4%.

(Values after paper PMC9516332 (Frontiers in Oncology, 2022).)
